The record followed here is ChEMBL document CHEMBL5696441 (Nat Chem Biol, 2011).

Series [1] concerns the target Dual specificity protein kinase CLK2 (Homo sapiens) (UniProt P49760). Put plainly: Inhibition of human CLK2 assessed as residual activity at 1 uM using RBER-GSK3 as substrate in presence of 33P-ATP by ProQinase assay relative to control.
The target of series [2] is Serine/threonine-protein kinase WNK2 (Homo sapiens) (UniProt Q9Y3S1). Put plainly: Inhibition of human WNK2 assessed as residual activity at 1 uM using RBER-CHKtide as substrate in presence of 33P-ATP by ProQinase assay relative to control.
Series [3] can be described thus: Anti-inflammatory activity against human derived high respond PBMC cells assessed as inhibition in stimulated IL-1alpha cytokine release incubated for 2 hrs in the presence of LPS/SEB/aCD28 by Luminex based sandwich immunoassay. The class given is functional, cell-based.
Series [4] is described as follows: Plasma concentration in Gal/LPS induced mouse at 3 mg/kg, po for 1 hrs. The class given is ADME, organism-based.
The target in series [5] is Fibroblast growth factor receptor 4 (Homo sapiens) (UniProt P22455). Put plainly: Inhibition of FGFR4 (unknown origin) assessed as remaining activity at 1 uM by Kinome scan method relative to control.
In series [6] the target is Receptor tyrosine-protein kinase erbB-4 (Homo sapiens) (UniProt Q15303). Briefly: Inhibition of ERBB4 (unknown origin) assessed as remaining activity at 1 uM by Kinome scan method relative to control.
In series [7] the target is Discoidin domain-containing receptor 2 (Homo sapiens) (UniProt Q16832). Put plainly: Inhibition of human DDR2 assessed as residual activity at 1 uM using poly(Ala,Glu,Lys,Tyr)6:2:5:1 as substrate in presence of 33P-ATP by ProQinase assay relative to control.
For series [8], the target named is Cyclin-dependent kinase 2/cyclin E1 (Homo sapiens) (UniProt P24864+P24941). Briefly: Inhibition of human CDK2/CycE1 assessed as residual activity at 1 uM using RBER-CHKtide as substrate in presence of 33P-ATP by ProQinase assay relative to control. Format: protein-complex assay.
The nature of series [9]: Anti-inflammatory activity against human derived medium respond PBMC cells assessed as inhibition in stimulated MCP-1 chemokine release incubated for 2 hrs in the presence of LPS/SEB/aCD28 by Luminex based sandwich immunoassay. Format: functional, cell-based.
Series [10] addresses Serine/threonine-protein kinase MRCK alpha (Homo sapiens) (UniProt Q5VT25). Put plainly: Inhibition of MRCKA (unknown origin) assessed as remaining activity at 1 uM by Kinome scan method relative to control.
Series [11] has as its target Tyrosine-protein kinase receptor TYRO3 (Homo sapiens) (UniProt Q06418). Briefly: Inhibition of human TYRO3 assessed as residual activity at 1 uM using PolyEY as substrate in presence of 33P-ATP by ProQinase assay relative to control.
Series [12] can be described thus: Anti-inflammatory activity against human derived medium respond PBMC cells assessed as inhibition in stimulated IL-6 cytokine release incubated for 2 hrs in the presence of LPS/SEB/aCD28 by Luminex based sandwich immunoassay. Format: functional, cell-based.
Series [13] deals with Calcium/calmodulin-dependent protein kinase type 1D (Homo sapiens) (UniProt Q8IU85). Briefly: Inhibition of CAMK1D (unknown origin) assessed as remaining activity at 1 uM by Kinome scan method relative to control.
Series [14] deals with Platelet-derived growth factor receptor alpha (Homo sapiens), P16234 [V561D]. Briefly: Inhibition of human PDGFRalpha V561D mutant assessed as residual activity at 1 uM using PolyEY as substrate in presence of 33P-ATP by ProQinase assay relative to control.
In series [15] the test system is Epidermal growth factor receptor (Homo sapiens), P00533 [L858R]. Put plainly: Inhibition of EGFR L858R mutant (unknown origin) assessed as remaining activity at 1 uM by Kinome scan method relative to control.
The target in series [16] is T1, Serine/threonine-protein kinase BRSK1 (Homo sapiens) (UniProt Q8TDC3).
T1 sequence (whole entry): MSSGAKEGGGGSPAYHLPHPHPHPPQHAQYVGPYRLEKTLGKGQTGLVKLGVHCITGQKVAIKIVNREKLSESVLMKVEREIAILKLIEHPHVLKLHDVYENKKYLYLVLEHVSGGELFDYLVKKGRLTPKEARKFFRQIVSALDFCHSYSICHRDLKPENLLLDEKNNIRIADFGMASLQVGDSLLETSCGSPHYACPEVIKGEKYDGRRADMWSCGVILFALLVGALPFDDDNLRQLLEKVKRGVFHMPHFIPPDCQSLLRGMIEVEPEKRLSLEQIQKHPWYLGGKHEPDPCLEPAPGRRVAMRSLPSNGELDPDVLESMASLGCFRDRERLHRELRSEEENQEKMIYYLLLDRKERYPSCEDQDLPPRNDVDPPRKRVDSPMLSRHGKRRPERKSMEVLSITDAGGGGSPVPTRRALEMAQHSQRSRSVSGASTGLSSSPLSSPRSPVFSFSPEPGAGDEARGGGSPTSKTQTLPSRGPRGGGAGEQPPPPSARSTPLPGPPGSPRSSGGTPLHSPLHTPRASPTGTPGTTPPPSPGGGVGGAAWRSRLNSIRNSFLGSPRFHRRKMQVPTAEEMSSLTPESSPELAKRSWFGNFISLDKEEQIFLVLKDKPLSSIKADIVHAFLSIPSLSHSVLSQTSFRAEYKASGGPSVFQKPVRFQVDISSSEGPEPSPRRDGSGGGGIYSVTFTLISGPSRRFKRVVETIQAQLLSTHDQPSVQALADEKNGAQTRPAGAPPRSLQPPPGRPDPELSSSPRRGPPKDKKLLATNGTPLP
Briefly: Inhibition of human BRSK1 assessed as residual activity at 1 uM using RBER-CHKtide as substrate in presence of 33P-ATP by ProQinase assay relative to control.

Series [17] deals with Testis-specific serine/threonine-protein kinase 2 (Homo sapiens) (UniProt Q96PF2). Put plainly: Inhibition of human TSK2 assessed as residual activity at 1 uM using RBER-CHKtide as substrate in presence of 33P-ATP by ProQinase assay relative to control.
In series [18] the target is Receptor-type tyrosine-protein kinase FLT3 (Homo sapiens) (UniProt P36888). Put plainly: Inhibition of FLT3 (unknown origin) assessed as remaining activity at 1 uM by Kinome scan method relative to control.
In series [19] the target is Myosin light chain kinase, smooth muscle (Homo sapiens) (UniProt Q15746). Put plainly: Inhibition of human MYLK assessed as residual activity at 1 uM using RB-S6P as substrate in presence of 33P-ATP by ProQinase assay relative to control.
Series [20] has as its system Mast/stem cell growth factor receptor Kit (Homo sapiens), P10721 [V559D,V654A]. Put plainly: Inhibition of KIT V559D/V654A mutant (unknown origin) assessed as remaining activity at 1 uM by Kinome scan method relative to control.
The target in series [21] is Tyrosine-protein kinase Srms (Homo sapiens) (UniProt Q9H3Y6). Put plainly: Inhibition of human SRMS assessed as residual activity at 1 uM using PolyEY as substrate in presence of 33P-ATP by ProQinase assay relative to control.
Series [22] has as its target Fibroblast growth factor receptor 3 (Homo sapiens) (UniProt P22607). Briefly: Inhibition of human FGFR3 assessed as residual activity at 1 uM using PolyEY as substrate in presence of 33P-ATP by ProQinase assay relative to control.

Chain of Myosin light chain kinase, smooth muscle (Homo sapiens) (Q15746 whole entry): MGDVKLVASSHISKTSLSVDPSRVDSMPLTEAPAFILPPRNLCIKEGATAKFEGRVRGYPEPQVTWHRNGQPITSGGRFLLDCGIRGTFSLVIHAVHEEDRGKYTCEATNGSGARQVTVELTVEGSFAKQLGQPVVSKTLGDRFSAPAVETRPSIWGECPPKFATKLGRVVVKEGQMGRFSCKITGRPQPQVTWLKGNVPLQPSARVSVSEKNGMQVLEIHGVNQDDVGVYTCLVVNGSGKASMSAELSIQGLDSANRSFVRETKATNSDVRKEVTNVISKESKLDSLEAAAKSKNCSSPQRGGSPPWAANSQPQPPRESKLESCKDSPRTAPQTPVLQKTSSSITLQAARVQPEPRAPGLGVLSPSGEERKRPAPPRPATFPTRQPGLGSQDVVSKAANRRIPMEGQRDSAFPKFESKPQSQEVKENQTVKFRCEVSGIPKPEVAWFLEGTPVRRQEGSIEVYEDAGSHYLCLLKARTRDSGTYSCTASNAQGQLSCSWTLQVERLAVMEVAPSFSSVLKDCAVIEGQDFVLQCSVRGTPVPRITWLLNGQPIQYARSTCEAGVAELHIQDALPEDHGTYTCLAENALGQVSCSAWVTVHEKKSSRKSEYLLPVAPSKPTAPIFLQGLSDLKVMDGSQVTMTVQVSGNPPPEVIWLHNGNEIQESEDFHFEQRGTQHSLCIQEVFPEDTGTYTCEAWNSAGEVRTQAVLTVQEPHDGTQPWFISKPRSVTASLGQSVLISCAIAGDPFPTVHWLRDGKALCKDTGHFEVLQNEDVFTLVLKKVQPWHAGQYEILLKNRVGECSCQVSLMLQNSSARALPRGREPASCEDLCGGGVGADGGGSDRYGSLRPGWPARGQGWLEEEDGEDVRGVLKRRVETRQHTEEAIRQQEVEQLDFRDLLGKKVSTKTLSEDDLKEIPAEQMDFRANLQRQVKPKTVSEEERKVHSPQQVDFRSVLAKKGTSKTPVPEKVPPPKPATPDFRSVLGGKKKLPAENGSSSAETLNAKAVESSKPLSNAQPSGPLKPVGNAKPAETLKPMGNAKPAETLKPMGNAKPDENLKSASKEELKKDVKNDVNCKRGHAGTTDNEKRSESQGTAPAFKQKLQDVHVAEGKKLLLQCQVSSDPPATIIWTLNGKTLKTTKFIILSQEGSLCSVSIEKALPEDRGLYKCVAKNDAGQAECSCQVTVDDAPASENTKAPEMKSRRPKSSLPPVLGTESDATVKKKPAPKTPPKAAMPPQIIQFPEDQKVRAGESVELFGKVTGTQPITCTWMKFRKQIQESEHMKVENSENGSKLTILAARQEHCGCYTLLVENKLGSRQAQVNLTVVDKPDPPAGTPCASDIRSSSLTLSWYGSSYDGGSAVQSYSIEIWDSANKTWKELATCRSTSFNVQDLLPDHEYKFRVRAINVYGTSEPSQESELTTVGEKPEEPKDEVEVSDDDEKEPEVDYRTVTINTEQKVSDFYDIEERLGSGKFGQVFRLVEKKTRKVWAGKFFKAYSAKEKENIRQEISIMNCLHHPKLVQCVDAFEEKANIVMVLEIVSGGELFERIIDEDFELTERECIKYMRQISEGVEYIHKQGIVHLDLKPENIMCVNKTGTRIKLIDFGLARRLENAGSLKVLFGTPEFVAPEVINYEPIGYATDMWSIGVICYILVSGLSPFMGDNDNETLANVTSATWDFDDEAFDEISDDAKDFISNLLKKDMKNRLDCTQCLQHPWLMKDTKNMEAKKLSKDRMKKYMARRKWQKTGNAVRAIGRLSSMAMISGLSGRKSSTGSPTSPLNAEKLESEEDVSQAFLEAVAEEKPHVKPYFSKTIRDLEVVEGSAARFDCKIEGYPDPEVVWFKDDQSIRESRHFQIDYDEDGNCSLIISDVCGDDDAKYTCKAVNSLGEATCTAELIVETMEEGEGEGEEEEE
Chain of Dual specificity protein kinase CLK2 (Homo sapiens) (P49760 whole entry, looked up): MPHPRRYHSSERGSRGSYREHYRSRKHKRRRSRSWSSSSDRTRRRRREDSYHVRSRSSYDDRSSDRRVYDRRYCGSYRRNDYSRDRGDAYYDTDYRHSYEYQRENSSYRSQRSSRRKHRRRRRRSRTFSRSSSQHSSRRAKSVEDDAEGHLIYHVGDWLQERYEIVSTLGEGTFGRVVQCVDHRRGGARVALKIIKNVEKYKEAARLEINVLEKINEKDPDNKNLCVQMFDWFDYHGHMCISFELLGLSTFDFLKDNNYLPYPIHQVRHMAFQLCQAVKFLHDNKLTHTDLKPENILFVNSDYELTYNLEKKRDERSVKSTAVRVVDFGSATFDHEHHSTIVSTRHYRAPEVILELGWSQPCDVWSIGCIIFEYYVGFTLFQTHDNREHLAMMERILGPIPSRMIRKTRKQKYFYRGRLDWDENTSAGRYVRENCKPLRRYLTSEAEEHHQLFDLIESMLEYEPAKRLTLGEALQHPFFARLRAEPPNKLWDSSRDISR
Chain of Discoidin domain-containing receptor 2 (Homo sapiens) (Q16832 whole entry, the tested form may be a part): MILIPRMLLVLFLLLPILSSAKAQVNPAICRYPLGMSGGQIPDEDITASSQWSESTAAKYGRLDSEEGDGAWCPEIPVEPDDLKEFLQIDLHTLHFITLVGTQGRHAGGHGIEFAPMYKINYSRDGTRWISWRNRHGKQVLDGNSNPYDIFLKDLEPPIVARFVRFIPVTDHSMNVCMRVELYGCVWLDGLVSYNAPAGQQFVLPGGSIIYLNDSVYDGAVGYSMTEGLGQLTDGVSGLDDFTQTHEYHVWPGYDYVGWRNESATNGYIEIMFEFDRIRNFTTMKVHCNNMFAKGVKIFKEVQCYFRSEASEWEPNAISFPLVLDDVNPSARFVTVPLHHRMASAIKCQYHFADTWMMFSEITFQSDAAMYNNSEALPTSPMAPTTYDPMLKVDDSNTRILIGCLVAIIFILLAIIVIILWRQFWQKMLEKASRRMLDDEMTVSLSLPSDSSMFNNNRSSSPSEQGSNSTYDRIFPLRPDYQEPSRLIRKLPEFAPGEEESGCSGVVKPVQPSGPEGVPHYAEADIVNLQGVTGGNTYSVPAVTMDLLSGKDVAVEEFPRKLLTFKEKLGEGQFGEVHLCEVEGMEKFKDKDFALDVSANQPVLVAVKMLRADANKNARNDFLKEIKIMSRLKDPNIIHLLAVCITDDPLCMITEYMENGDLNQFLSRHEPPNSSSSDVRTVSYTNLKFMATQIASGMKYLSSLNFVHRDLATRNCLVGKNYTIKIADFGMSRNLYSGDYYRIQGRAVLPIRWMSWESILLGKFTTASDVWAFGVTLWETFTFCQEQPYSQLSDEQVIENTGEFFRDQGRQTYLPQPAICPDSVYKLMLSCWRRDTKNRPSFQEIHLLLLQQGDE
Chain of Tyrosine-protein kinase Srms (Homo sapiens) (Q9H3Y6 whole entry): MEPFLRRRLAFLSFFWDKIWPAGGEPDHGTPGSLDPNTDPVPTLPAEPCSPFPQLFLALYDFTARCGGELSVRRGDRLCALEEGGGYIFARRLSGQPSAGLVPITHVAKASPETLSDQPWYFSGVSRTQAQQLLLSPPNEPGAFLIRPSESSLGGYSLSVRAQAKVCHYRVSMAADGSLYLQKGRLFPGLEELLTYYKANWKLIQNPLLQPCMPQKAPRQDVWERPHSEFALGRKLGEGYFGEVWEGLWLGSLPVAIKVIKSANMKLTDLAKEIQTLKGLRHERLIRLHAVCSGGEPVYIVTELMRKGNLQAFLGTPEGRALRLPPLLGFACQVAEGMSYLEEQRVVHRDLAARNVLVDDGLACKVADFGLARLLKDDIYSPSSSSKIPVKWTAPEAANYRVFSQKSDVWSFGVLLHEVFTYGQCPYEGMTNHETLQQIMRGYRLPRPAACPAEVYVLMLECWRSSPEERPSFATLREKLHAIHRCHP
Chain of Receptor-type tyrosine-protein kinase FLT3 (Homo sapiens) (P36888 whole entry): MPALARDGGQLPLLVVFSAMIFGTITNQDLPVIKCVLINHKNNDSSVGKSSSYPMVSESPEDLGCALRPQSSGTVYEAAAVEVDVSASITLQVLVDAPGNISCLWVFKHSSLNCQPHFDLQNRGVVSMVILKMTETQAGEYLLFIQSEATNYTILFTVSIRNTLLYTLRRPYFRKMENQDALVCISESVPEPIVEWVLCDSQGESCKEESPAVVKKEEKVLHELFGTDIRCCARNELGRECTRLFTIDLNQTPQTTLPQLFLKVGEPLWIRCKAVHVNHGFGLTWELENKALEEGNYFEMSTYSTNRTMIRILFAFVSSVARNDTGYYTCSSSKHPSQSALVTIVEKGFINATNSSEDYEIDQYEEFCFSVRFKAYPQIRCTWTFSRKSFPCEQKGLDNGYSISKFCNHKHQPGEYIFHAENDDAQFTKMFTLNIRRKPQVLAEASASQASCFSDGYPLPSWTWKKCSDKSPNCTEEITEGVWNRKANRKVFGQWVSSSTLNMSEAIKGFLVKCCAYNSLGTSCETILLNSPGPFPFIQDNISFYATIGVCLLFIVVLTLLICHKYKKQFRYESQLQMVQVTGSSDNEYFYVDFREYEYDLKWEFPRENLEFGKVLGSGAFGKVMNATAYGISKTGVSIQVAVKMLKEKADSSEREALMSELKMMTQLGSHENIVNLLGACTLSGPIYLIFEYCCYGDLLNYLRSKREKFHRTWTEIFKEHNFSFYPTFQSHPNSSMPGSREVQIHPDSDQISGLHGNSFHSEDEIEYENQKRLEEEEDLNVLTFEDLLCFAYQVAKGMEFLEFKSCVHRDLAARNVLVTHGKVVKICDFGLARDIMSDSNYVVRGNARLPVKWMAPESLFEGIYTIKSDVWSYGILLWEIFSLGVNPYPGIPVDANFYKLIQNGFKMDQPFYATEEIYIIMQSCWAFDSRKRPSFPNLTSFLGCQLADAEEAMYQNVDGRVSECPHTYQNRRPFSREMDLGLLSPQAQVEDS

Usually IC50 stands for the midpoint of a concentration-inhibition curve. On to `O=C1c2ccc(Nc3ccc(F)cc3F)cc2CCc2ccc(OC[C@H](O)CO)cc21` [Skepinone-L], for which the Activity in series [1] was determined as 89%; in [2], 95%; in series [5] it was 98%; in series [6] it was 97%; in series [7], 102%; in series [8] it was 85%. The Activity in series [10] was determined as 100%; in series [11], 108%; in [13] it was 99%; in [14] it was 91%; in series [15], 93%; in series [16] it was 94%. Also, the Activity was 82% in series [17]; 97% in series [18]; 78% in series [19]; 100% in series [20]; 95% in series [21]; 102% in series [22]. Besides, the values for the IC50 in series [3], in [9] and in [12] were 120 nM, 90 nM and 780 nM, respectively. This compound also had a concentration at 1 h in series [4] of 240 nM.
